In ChEMBL document CHEMBL5257026, “Progress and prospects on DENV protease inhibitors” (Eur J Med Chem, 2016):
One block for each molecule: values may come before it. Starred links: 1 amine or outer side, 2 acyl side, 3 side chain; linkers in the order of their positions; H or OH if unused. Non-standard residues stand in square brackets, D forms with d. Residues, ends and D or L forms follow the SMILES beside them. *: point of attachment. Arg(ψCOCO) = N=C(N)NCCC[C@H](N[*:1])C(=O)C(=O)[*:2]; Nle = CCCC[C@H](N)C(=O)O; PhAc = O=C(Cc1ccccc1)*; Bz = O=C(c1ccccc1)*

What was measured:
[1] = Inhibition of DENV2 NS2B-G4-S-G4-NS3 protease using Bz-nKRR-AMC as substrate preincubated for 30 mins followed by substrate addition by fluorescence microplate reader assay; set-up: species or system dengue virus type 2
[2] = Inhibition of DENV2 recombinant CF40-glycine fused NS2B-NS3 protease expressed in Escherichia coli SG13009 using Ac-TTSTRR-pNA as substrate preincubated for 50 mins followed by substrate addition by spectrophotometric assay; set-up: species or system dengue virus type 2
[3] = Inhibition of DENV2 recombinant NS2B-NS3 protease expressed in Escherichia coli C41 using GRR-AMC as substrate incubated for 15 mins by Lineweaver-Burk plot analysis; set-up: species or system dengue virus type 2
[4] = Inhibition of DENV2 recombinant NS2B-NS3 protease expressed in Escherichia coli JM109 using acetyl-TTSTRR-para-nitroaniline as substrate preincubated for 10 mins followed by substrate addition measured after 120 mins by spectrophotometric analysis; set-up: species or system dengue virus type 2
[5] = Inhibition of DENV4 N-terminally hexa-His tagged NS2B (48 to 95 residues) -NS3 (1 to 184 residues) protease expressed in Escherichia coli XL1 Blue using QXL570-Phe-Ala-Ser-Gly-Lys-Arg-Ser-Gln-Ile-Gly-Leu-Lys(5-TAMRA)-NH2 as substrate and measured for 15 mins by FRET assay; set-up: species or system dengue virus type 4
[6] = Inhibition of DENV2 N-terminally hexa-His tagged NS2B (48 to 95 residues) -NS3 (1 to 184 residues) protease expressed in Escherichia coli XL1 Blue using QXL570-Phe-Ala-Ser-Gly-Lys-Arg-Ser-Gln-Ile-Gly-Leu-Lys(5-TAMRA)-NH2 as substrate and measured for 15 mins by FRET assay; set-up: species or system dengue virus type 2
[7] = Inhibition of DENV3 N-terminally hexa-His tagged NS2B (48 to 95 residues) -NS3 (1 to 184 residues) protease expressed in Escherichia coli XL1 Blue using QXL570-Phe-Ala-Ser-Gly-Lys-Arg-Ser-Gln-Ile-Gly-Leu-Lys(5-TAMRA)-NH2 as substrate and measured for 15 mins by FRET assay; set-up: species or system dengue virus type 3
[8] = Inhibition of DENV1 N-terminally hexa-His tagged NS2B (48 to 95 residues) -NS3 (1 to 184 residues) protease expressed in Escherichia coli XL1 Blue using QXL570-Phe-Ala-Ser-Gly-Lys-Arg-Ser-Gln-Ile-Gly-Leu-Lys(5-TAMRA)-NH2 as substrate and measured for 15 mins by FRET assay; set-up: species or system dengue virus type 1
[9] = Inhibition of DENV2 hydrophilic domain of NS2B (48 aminoacids)-NS3 (185 aminoacids) protease using Bz-Nle-Lys-Arg-Arg-AMC as substrate preincubated for 15 mins followed by substrate addition by spectrofluorometeric assay; set-up: species or system dengue virus type 2
[10] = Inhibition of DENV2 recombinant NS2B-(G4-S-G4)-NS3 protease using Bz-nKRR-AMC as substrate preincubated for 30 mins followed by substrate addition measured after 30 mins by fluorescence spectrophotometric analysis; set-up: species or system dengue virus type 2
[11] = Inhibition of DENV2 NS2B-NS3 protease expressed in Escherichia coli BL21 (DE3) using Bz-Nle-Lys-Arg-Arg-AMC as substrate preincubated for 30 mins followed by substrate addition by fluorescence plate reader analysis; set-up: species or system dengue virus type 2
[12] = Inhibition of DENV2 recombinant CF40gly(T)R fused NS2B-NS3 protease expressed in Escherichia coli XL1-Blue MRF using Boc-Gly-Arg-Arg-MCA as substrate incubated for 30 mins by fluorescence spectrophotometeric assay; set-up: species or system dengue virus type 2

IC50 [1]: 300 µM
Structure (SMILES): Cc1[nH]c2ccccc2c1C(=O)NCc1ccc(CN2CCCC2)cc1

Structure (SMILES): CC(=O)N[C@@H](Cc1ccccc1)C(=O)N[C@@H](C)C(=O)N[C@@H](C)C(=O)NCC(=O)N[C@@H](CCCNC(=N)N)C(=O)N[C@@H](CCCNC(=N)N)C(=O)C(=O)N[C@@H](CO)C(=O)N[C@@H](CC(C)C)C(N)=O (Ac-FAAGR[Arg(ψCOCO)]SL-NH2)
Ki [2]: 47 µM

Structure (SMILES): CC(=O)N[C@@H](CO)C(=O)N[C@@H](CCCCN)C(=O)N[C@@H](CCCCN)C(=O)N[C@@H](CCCNC(=N)N)C(N)=O (Ac-SKKR-NH2)
Ki [3]: 188 µM

Structure (SMILES): CC(=O)N[C@@H](Cc1ccccc1)C(=O)N[C@@H](C)C(=O)N[C@@H](C)C(=O)NCC(=O)N[C@@H](CCCNC(=N)N)C(=O)N[C@@H](CCCCN)C(N)=O (Ac-FAAGRK-NH2)
Ki [3]: 25.9 µM

IC50 [4]: 22 µM
Structure (SMILES): O=C(Nc1nc2ccc([N+](=O)[O-])cc2s1)c1ccccc1Sc1ccc(C(F)(F)F)cc1

IC50 [1]: 37.9 µM
Structure (SMILES): N#Cc1ccc(OC(=O)c2ccc(NC(=N)N)cc2)cc1

IC50 [4]: 34 µM
Structure (SMILES): O=C(Nc1nc2ccc([N+](=O)[O-])cc2s1)c1ccccc1Sc1ccc([N+](=O)[O-])cc1

IC50 [5]: 20 µM
IC50 [6]: 10.9 µM
IC50 [7]: 9 µM
IC50 [8]: 5 µM
Structure (SMILES): N=C(N)Nc1ccc(O[C@H]2C[C@@H](Oc3ccc(NC(=N)N)cc3)[C@H](NC(=N)N)C[C@@H]2NC(=N)N)cc1

IC50 [9]: 2340 nM
Structure (SMILES): Oc1c(C(Cc2nccs2)c2ccccc2OCc2ccccc2)ccc2ccccc12 (stereo not given)

IC50 [5]: 69 µM
IC50 [6]: 17 µM
IC50 [7]: 18.4 µM
IC50 [8]: 10.3 µM
Structure (SMILES): N=C(N)Nc1ccc(NC(=O)O[C@H]2C[C@@H](OC(=O)Nc3ccc(NC(=N)N)cc3)[C@H](NC(=N)N)C[C@@H]2NC(=N)N)cc1

IC50 [10]: 6.7 µM
Structure (SMILES): N=C(N)NCCC[C@@H](C=O)NC(=O)[C@H](CCCNC(=N)N)NC(=O)[C@H](CCCCN)NC(=O)Cc1ccccc1 (PhAc-Lys-Arg-Arg-aldehyde)

IC50 [5]: 55 µM
IC50 [6]: 32 µM
IC50 [7]: 17 µM
IC50 [8]: 8.8 µM
Structure (SMILES): N=C(N)Nc1ccccc1O[C@H]1C[C@@H](Oc2ccccc2NC(=N)N)[C@H](NC(=N)N)C[C@@H]1NC(=N)N

IC50 [9]: 2930 nM
Structure (SMILES): Oc1c(C(Cc2nccs2)c2cccc(OCc3ccccc3)c2)ccc2ccccc12 (stereo not given)

IC50 [11]: 8.9 µM
Structure (SMILES): CC1CNC(c2ccc(Nc3nnc(Nc4ccc(C5=NC(C)CN5)cc4)c4ccccc34)cc2)=N1 (stereo not given)

IC50 [4]: 98 µM
Structure (SMILES): O=C(Nc1cccs1)c1ccccc1Sc1ccc([N+](=O)[O-])cc1

IC50 [11]: 1.1 µM
Structure (SMILES): c1ccc2[nH]c(-c3ccc(Nc4nnc(Nc5ccc(-c6nc7ccccc7[nH]6)cc5)c5ccccc45)cc3)nc2c1

IC50 [5]: 12.4 µM
IC50 [6]: 10 µM
IC50 [7]: 4 µM
IC50 [8]: 5.3 µM
Structure (SMILES): N=C(N)Nc1ccc(N[C@H]2C[C@@H](NC(=N)N)[C@H](Oc3ccc(NC(=N)N)cc3)C[C@@H]2Oc2ccc(NC(=N)N)cc2)cc1

Structure (SMILES): c1ccc([C@H]2Oc3ccccc3[C@@H]3Oc4ccccc4C[C@H]23)cc1
Ki [12]: 510 µM

IC50 [10]: 9.5 µM
Structure (SMILES): CCCC[C@H](NC(=O)c1ccccc1)C(=O)N[C@@H](CCCCN)C(=O)N[C@@H](CCCNC(=N)N)C(=O)N[C@H](C=O)CCCNC(=N)N (Bz-[Nle]KRR-aldehyde)

Structure (SMILES): CC(=O)N[C@H](C(=O)N[C@H](C(=O)N[C@@H](CO)C(=O)N[C@H](C(=O)N[C@@H](CCCNC(=N)N)C(=O)N[C@@H](CCCNC(=N)N)C(=O)C(=O)NCC(=O)N[C@H](C(=O)NCC(=O)N[C@@H](CC(N)=O)C(N)=O)[C@@H](C)O)[C@@H](C)O)[C@@H](C)O)[C@@H](C)O (Ac-TTSTR[Arg(ψCOCO)]GTGN-NH2)
Ki [2]: 368 µM

Structure (SMILES): CC(=O)N[C@@H](CCC(=O)O)C(=O)N[C@H](C(=O)N[C@@H](CCCCN)C(=O)N[C@@H](CCCCN)C(=O)N[C@@H](CCC(N)=O)C(=O)N[C@@H](CCCNC(=N)N)C(N)=O)C(C)C (Ac-EVKKQR-NH2)
Ki [3]: 66.7 µM

IC50 [1]: 7.7 µM
Structure (SMILES): N=C(N)Nc1ccc(OC(=O)c2ccc(NC(=N)N)cc2)cc1

Structure (SMILES): CC(=O)N[C@H](C(=O)N[C@H](C(=O)N[C@@H](CO)C(=O)N[C@H](C(=O)N[C@@H](CCCNC(=N)N)C(=O)N[C@@H](CCCNC(=N)N)C(N)=O)[C@@H](C)O)[C@@H](C)O)[C@@H](C)O (Ac-TTSTRR-NH2)
Ki [3]: 46 µM
